Measurements taken from patent US11278492B2 (priority 2018, dated 2022).

Assays:
rat = assay: 14-day sub-chronic toxicity in rat with nasal olanzapine delivery; assay type: in vivo; settings: nasal delivery (data not shown)
[1] = oral olanzapine tablets or disintegrating tablets, previously reported; cited from earlier work
[2] = Phase 1 clinical trial, plasma olanzapine pharmacokinetics; settings: human, in vivo
Method: Randomization for Periods 1 and 2 was performed for each subject on Day 1.
In Period 1, subjects were assigned to 1 of 3 cohorts (n=12 per cohort). […] Dose administration occurred at Visit 2 on Day 1 (relative to each cohort). Each cohort was scheduled to allow time for Period 2 safety assessments to occur prior to dose escalation in the next cohort period 2 dosing. Subjects remained confined to the study site for 72 hours after dosing. Subjects returned to the study site on Days 5 and 6 (Visits 3 and 4) for follow-up assessments.
In Period 2, subjects returned to the study site after a washout period of at least 14 days. Subjects from each Period 1 cohort received a single dose of INP105 (5, 10 or 15 mg) or placebo in a 9:3 ratio, as outlined in Table 11. Dose administration occurred on Day 15. (Dosing was permitted to occur later than the calendar Day 15 as required for scheduling (up to 2 days) but not before Day 15.) Ascending-dose levels of INP105 (5, 10 or 15 mg) were administered to ascending cohort numbers as follows:
The following pharmacokinetic parameters were determined: Cmax, Tmax, Tlast, AUClast, and t1/2 where possible.

Cc1cc2c(s1)Nc1ccccc1N=C2N1CCN(C)CC1 [olanzapine]
macroscopic or microscopic findings (rat): No macroscopic or microscopic findings | time to peak plasma concentration (Tmax) [1]: 300 to 480 min | Tmax ([2]; im, 5 mg): 19.8 to 21.6 min | Tmax ([2]; inhaled or intranasal): 9.6 to 10.2 min | Cmax ([2]; inhaled or intranasal, 15 mg): ≥ 30 ng/mL | Tmax ([2]; po, 10 mg): 120 min
